From paper PMC7038240 (Antimicrobial Agents and Chemotherapy, 2020)
Read-outs that look alike come from different tables or passages of the source.

Assays:
Experiment in all cases: microbe, parasite or virus in culture
Format in all cases: cell-based
S. marcescens = settings: Serratia marcescens
Excerpt: (§1) The antibacterial activity of cefepime-taniborbactam was compared to that of ceftazidime-avibactam, ceftolozane-tazobactam, and cefepime-tazobactam against a diverse panel of Enterobacterales and P. aeruginosa clinical isolates with defined β-lactamase subtypes (see Table S1 in the supplemental material). IMP-producing strains were excluded, as none of the BLI-protected cephalosporins inhibited IMP sufficiently to provide a clinically relevant rescue of the partner β-lactam, a characteristic also shared by approved BLI-protected carbapenems (meropenem-vaborbactam and imipenem-relebactam). […] The antibacterial activity of the cephalosporins alone was included to ascertain the level of potentiation by the partnered BLI. BLIs were tested at a fixed concentration of 4 μg/ml in all combinations except cefepime-tazobactam, where tazobactam was fixed at a concentration of 8 μg/ml ([38]). The collection comprised 143 clinical isolates collected from 2005 and 2018.
(§2) The in vitro antibacterial activity of the β-lactams alone or in combination with the BLIs was determined in cation-adjusted Mueller-Hinton broth (CAMHB) microdilution assays according to CLSI recommendations ([51]). […]. The inocula for the broth microdilution assays were prepared by the broth culture method ([51]). […]

K. aerogenes = settings: Klebsiella aerogenes
Excerpt: as §1, §2

C. freundii = settings: Citrobacter freundii
Excerpt: as §1, §2

K. pneumoniae = settings: Klebsiella pneumoniae, read-out: MIC
Excerpt: as §1, §2

S. paratyphi = settings: Salmonella enterica, strain 527, AmpC/TEM-1
Excerpt: as §1, §2

K. oxytoca = settings: Klebsiella oxytoca, read-out: MIC
Excerpt: as §1, §2

P. aeruginosa = settings: Pseudomonas aeruginosa
Excerpt: as §1, §2

`CO/N=C(\C(=O)N[C@@H]1C(=O)N2C(C(=O)[O-])=C(C[N+]3(C)CCCC3)CS[C@H]12)c1csc(N)n1` [FEP] gave an MIC (S. marcescens; strain 134434, AmpC/SHV-12/TEM-1) of 4 µg/mL, an MIC (S. marcescens; strain 192476, AmpC/TEM-1/SHV-5) of 4 µg/mL and an MIC (S. marcescens; strain 192478, AmpC/SHV-12/TEM-1) of 4 µg/mL. The MIC (S. marcescens; strain 218073, AmpC/SHV-7/TEM-1) was 2 µg/mL, the MIC (K. aerogenes; strain 73546, AmpC) was 0.5 µg/mL and the MIC (K. aerogenes; strain 110099, AmpC/SHV-12) was 4 µg/mL. The MIC (K. aerogenes; strain 111707, AmpC/TEM-1) was 4 µg/mL, the MIC (C. freundii; strain 134390, AmpC/TEM-1) was 0.5 µg/mL and the MIC (C. freundii; strain 241181, AmpC/TEM-163) was 8 µg/mL. It also gave an MIC (K. pneumoniae; ATCC13883, K. pneumoniae ATCC 13883, enzyme content None) of 0.06 µg/mL, an MIC (K. pneumoniae; BAA1705, K. pneumoniae BAA 1705, KPC-2) of 16 µg/mL and an MIC (K. pneumoniae; K. pneumoniae CDC-0049 (NDM), BLI fixed at 4 μg/ml) of 256 µg/mL. For the same compound, the MIC (K. pneumoniae; strain 6299, OXA-163) was 64 µg/mL, the MIC (K. pneumoniae; strain 137052, SHV-11/KPC-3/TEM-1) was 16 µg/mL and the MIC (K. pneumoniae; strain 178279, SHV-12/TEM-1/AmpC) was 8 µg/mL. It also gave an MIC (K. pneumoniae; strain 196477, AmpC) of 16 µg/mL, an MIC (K. pneumoniae; strain 212027, AmpC/FOX-5/TEM-1) of 2 µg/mL and an MIC (K. pneumoniae; strain 515746, OXA-48) of 32 µg/mL. The MIC (K. pneumoniae; strain 664438, OXA-48) was 32 µg/mL, the MIC (K. pneumoniae; strain 664439, OXA-48) was 32 µg/mL and the MIC (K. pneumoniae; strain 722870, OXA-48) was 8 µg/mL. For the same compound, the MIC (K. pneumoniae; strain 752334, OXA-48) was 128 µg/mL, the MIC (K. pneumoniae; strain 769972, OXA-48) was 16 µg/mL and the MIC (K. pneumoniae; strain 787422, OXA-48) was 64 µg/mL. It also gave an MIC (K. pneumoniae; strain 845661, KPC) of no less than 256 µg/mL, an MIC (K. pneumoniae; strain 847204, KPC) of 32 µg/mL and an MIC (K. pneumoniae; strain 848562, KPC) of no less than 256 µg/mL. For the same compound, the MIC (K. pneumoniae; strain 848600, KPC) was no less than 256 µg/mL, the MIC (K. pneumoniae; strain 848828, KPC) was no less than 256 µg/mL and the MIC (K. pneumoniae; strain 849170, KPC) was no less than 256 µg/mL. The MIC (K. pneumoniae; strain 856819, SHV-11/VIM-1) was 32 µg/mL, the MIC (K. pneumoniae; strain 864085, KPC) was 32 µg/mL and the MIC (K. pneumoniae; strain 871489, KPC) was no less than 256 µg/mL. For the same compound, the MIC (K. pneumoniae; strain 873460, SHV-30/CTX-M-15) was 32 µg/mL, the MIC (K. pneumoniae; strain 874328, SHV-11/CTX-M-15/NDM-1) was 128 µg/mL and the MIC (K. pneumoniae; strain 882752, SHV-11/TEM-1/KPC-3) was 128 µg/mL. It also gave an MIC (K. pneumoniae; strain 882956, SHV-31/DHA-1/VIM-1) of 16 µg/mL, an MIC (K. pneumoniae; strain 884679, KPC) of 32 µg/mL and an MIC (K. pneumoniae; strain 890066, SHV-33/TEM-33/CTX-M-15/IMP-1) of 64 µg/mL. It also gave an MIC (K. pneumoniae; strain 892694, SHV-12/TEM-1/CTX-M-15/OXA-48/ACT) of 32 µg/mL, an MIC (K. pneumoniae; strain 919877, SHV-OSBL/VIM-1) of 128 µg/mL and an MIC (K. pneumoniae; strain 1104864, SHV-OSBL(b)/VIM-1) of no less than 256 µg/mL. The MIC (K. pneumoniae; strain 1104866, SHV-OSBL(b)/VIM-1) was no less than 256 µg/mL, the MIC (K. pneumoniae; strain 1280442, SHV-OSBL(b)/VIM-1) was 16 µg/mL and the MIC (K. pneumoniae; strain CDC-0003, KPC) was 32 µg/mL. The MIC (K. pneumoniae; strain CDC-0049, NDM) was no less than 256 µg/mL, the MIC (K. pneumoniae; strain CDC-0117, KPC-3) was 64 µg/mL and the MIC (K. pneumoniae; strain CDC-0125, KPC-3) was 64 µg/mL. The MIC (K. pneumoniae; strain CDC-0139, NDM-1) was no less than 256 µg/mL, the MIC (K. pneumoniae; strain CDC-0145, NDM) was no less than 256 µg/mL and the MIC (K. pneumoniae; strain CDC-0148, NDM) was 128 µg/mL. The MIC (K. pneumoniae; strain CDC-0152, NDM) was no less than 256 µg/mL, the MIC (K. pneumoniae; strain DOV, OXA-48) was 32 µg/mL and the MIC (K. pneumoniae; strain ESBL8 #1, TEM-1/SHV-12) was 4 µg/mL. The MIC (K. pneumoniae; strain ESBL 10, SHV-12/TEM-1) was 8 µg/mL, the MIC (K. pneumoniae; strain KIRK, OXA-162) was 16 µg/mL and the MIC (K. pneumoniae; strain KP 3, SHV-1/TEM-1) was 16 µg/mL. It also gave an MIC (K. pneumoniae; strain KPN 508, SHV-7/TEM-1) of 8 µg/mL, an MIC (K. pneumoniae; strain SI-C05, OXA-48) of 16 µg/mL and an MIC (K. pneumoniae; strain SI-F100, SHV-5/TEM-1/CMY-2) of 1 µg/mL. For the same compound, the MIC (K. pneumoniae; strain SI-KP NO30, TEM-26b/SHV-60/SHV-26) was 16 µg/mL, the MIC (S. paratyphi) was 64 µg/mL and the MIC (K. oxytoca; strain 134943, CMY-2/TEM-1) was 4 µg/mL. The MIC (K. oxytoca; strain 847537, KPC) was 32 µg/mL, the MIC (P. aeruginosa) was 16 µg/mL and the MIC (P. aeruginosa; ATCC27853, P. aeruginosa ATCC 27853, PDC-5, read-out: MIC) was 1 µg/mL. It also gave an MIC (P. aeruginosa; ATCC27853, strain ATCC 27853, W.T., read-out: MIC) of 1 µg/mL and an MIC (P. aeruginosa; P. aeruginosa CDC-0457, VIM, read-out: MIC) of 16 µg/mL.
